Data as given in a melting point compilation (Tetko et al.; mined from patent text by program, amines drawn as free bases though some values may be those of a salt).

Compared with `Cc1cc2c(cc1C)N(C)Cc1cscc1N2`, `Cc1ccc2c(c1)C(=O)N(C)CC(=O)N2` is higher in melting point: 121 to 125 °C for the first, 243 to 244 °C for the second.

First: CCCN1C(=O)COc2ccc(N3C(=O)C(C)=C(C)C3O)cc21 (stereo not given)
Second: CN1CC(N(C)[C@@H]2c3cc(C#N)ccc3OC(C)(C)[C@H]2O)=CC1=O (relative stereo)
The melting point of the first is lower: 124 to 125 °C for the first, 266 to 269 °C for the second.

Compared with `CC(C)(C)c1ccccc1C(=O)O`, `Cc1cc(Nc2ccccc2C(=O)O)n(C)n1` is higher in melting point: 38.5 to 40.5 °C for the first, 210 to 211 °C for the second.

Compared with `Cc1nc(-n2ccc(O)cc2=O)sc1C(=O)NCCC1CC1`, `CS(=O)(=O)c1cc(C(=O)NCCN2CCOCC2)c(NCc2ccco2)cc1Cl` is lower in melting point: 234 to 236 °C for the first, 127 to 130 °C for the second.

First: Cc1cc(C)c2nsnc2c1N
Second: COc1nc(OC)nc(-n2c(N)nc3cc(Cl)ccc32)n1
The melting point of the first is lower: 113 to 114 °C for the first, 293 to 296 °C for the second.

Compared with `CS(=O)(=O)c1ccc(-c2nn(Cc3ccccc3)c(=O)cc2-c2ccc(F)cc2)cc1`, `CS(=O)(=O)c1ccc(-c2nn(Cc3ccccc3)c(=O)cc2-c2ccccc2)cc1` is higher in melting point: 188 °C for the first, 211 to 212 °C for the second.

Compared with `CCCOC1(OC)C=CC=C(N2CCC(c3noc4cc(F)ccc34)CC2)C1O` (stereo not given), `COc1cc(C2(C=O)C=CC=CC2)ccc1OCCCN1CCC(c2noc3cc(F)ccc23)CC1` (stereo not given) is lower in melting point: 134 to 135 °C for the first, 128 to 130 °C for the second.

Compared with `CCC(CC)Nc1cc(C)nc(Nc2c(C)cc(C)cc2C)c1CC(C(=O)OC)C(=O)OC`, `CCOC(=O)C1=C(C)NC(=O)N(C(=O)OCC)C1c1cccc([N+](=O)[O-])c1` (stereo not given) is lower in melting point: 136 to 138 °C for the first, 107 to 108 °C for the second.

Compared with `CN(C)C(=O)c1ccc(CCC(=O)c2cccc(OCc3ccc4ccc(Cl)cc4n3)c2)o1`, `COc1ccc(CCOc2cccc(-c3cccc(C(=O)O)c3)n2)cc1OC` is higher in melting point: 129 to 131 °C for the first, 147 to 148 °C for the second.

`CNC(=O)NCCN1CCC(Nc2nc3ccccc3n2Cc2ccc(F)cc2)C1` (stereo not given) and `CC(=O)NCc1ccc2c(c1)N(C1CCN(CCc3ccc(F)cc3)CC1)CC2` cannot be ordered by melting point: 161 °C for the first, 160 to 162 °C for the second.

Compared with `O=C(Nc1ccc([N+](=O)[O-])cc1)N[C@H]1C[C@H](C(=O)O)Nc2cc(Cl)cc(Cl)c21` (relative stereo), `O=C(NC(=O)c1ccccc1Cl)Nc1ccc(Cl)c(C(F)(F)F)c1` is lower in melting point: 185 to 186 °C for the first, 164 °C for the second.

First: CC(C)CCCC(C)NC(=O)CCC(=O)c1ccccc1 (stereo not given)
Second: CNC(=O)N(O)C(C)C#Cc1ccccc1 (stereo not given)
The melting point of the first is lower: 84 to 87 °C for the first, 136 to 137 °C for the second.

First: O=C(CCl)NCCOCCO
Second: CCP(=O)(O)CCCN
The melting point of the first is lower: 130 to 132 °C for the first, 233 to 239 °C for the second.

First: CC(C)(O)c1csc(S(N)(=O)=O)c1
Second: CC1(C)c2cc(OS(C)(=O)=O)ccc2OC1Cl (stereo not given)
The melting point of the first is higher: 125 to 127 °C for the first, 59 to 61 °C for the second.

Compared with `COC(=O)C#CC(=O)c1cccc(Cl)c1`, `COC(=O)CCc1cc2cc(Cl)ccc2n1S(=O)(=O)c1cccc(C)c1` is higher in melting point: 73 to 75 °C for the first, 105 to 108 °C for the second.

First: NC(=S)Nc1ccc(C(F)(F)F)cn1
Second: CN(C)c1ccc(CNc2ccc(C(F)(F)F)cc2[N+](=O)[O-])cc1
The melting point of the first is higher: 203 to 205 °C for the first, 158 to 160 °C for the second.

Compared with `C(=C(c1ccccc1)c1ccccc1)P(c1ccccc1)c1ccccc1`, `COc1cccc(-c2nc(-c3ccccc3)c3ncc(-c4csc5ccccc45)cc3n2)c1` is lower in melting point: 116 to 118 °C for the first, 112 to 113 °C for the second.

First: NC(=O)c1cc2ccccc2cc1NC(=S)NC(=O)c1ccccc1
Second: CCc1cc(OCc2ccccc2)cc(C(=O)O)c1C(=O)OC
The melting point of the first is higher: 220 to 223 °C for the first, 135 to 136 °C for the second.

Compared with `CC1(C)CCCN(CCNc2ccnc3cc(Cl)ccc23)C1`, `CC1(C)CCOC1(O)C(Cc1ccc(Cl)cc1)n1cncn1` (stereo not given) is lower in melting point: 151 to 153 °C for the first, 98 °C for the second.

Compared with `COC(=O)c1c(C(=O)OC)c(-c2ccc(OC)cc2)c2c3c(ccc2c1OC)OCO3`, `CCOC(=O)C(C)(C)Oc1ccc(CCNC(=O)C(C)(C)Oc2cccc(OC)c2)cc1` is lower in melting point: 166 to 167 °C for the first, 68 to 69 °C for the second.

First: Cc1nnc(-c2ccc3occ(-c4ccc(S(=O)CF)cc4)c3c2)o1 (stereo not given)
Second: ClCc1ccc(-c2nc3cccc(Cl)c3o2)cc1
The melting point of the first is higher: 173 to 174 °C for the first, 92 to 93 °C for the second.

Compared with `CC1(C)Oc2cc3c(cc2O1)OC(C)(C)O3`, `CC(=O)N(C)c1cc([N+](=O)[O-])cc([N+](=O)[O-])c1` is higher in melting point: 122 °C for the first, 134 to 136 °C for the second.

First: CNC1=Nc2ccc(Cl)cc2C(c2ccc[nH]2)=NC1
Second: Clc1ccc2c(c1)N=C(N1CCN(CC3CC3)CC1)c1ccccc1N2
The melting point of the first is higher: 251 °C for the first, 148 to 151 °C for the second.

First: CN1CCN(c2ccc(/C=C/C(=O)O)cc2)CC1
Second: CN1CCN(c2ncc3c(=O)c(C(=O)O)cn(Cc4ccccc4)c3n2)CC1
The melting point of the first is lower: 223 to 226 °C for the first, 251 to 255 °C for the second.

`COc1cc2c(cc1Cl)C(Cl)Cc1ccccc1S2` (stereo not given) and `CC(=O)c1ccccc1Nc1c(Cl)ccc(C)c1Cl` fall in the same range of melting point: 130 to 132 °C for the first, 130 to 132 °C for the second.

First: Nc1n[nH]cc1S(=O)(=O)c1ccccc1
Second: Cc1nc(N)ccc1NC(=NC#N)Oc1ccccc1
The melting point of the first is lower: 159 to 161 °C for the first, 189 to 190 °C for the second.

First: O=C(CCc1cnoc1-c1ccccc1)Nc1ccc(CP(=O)(O)O)cc1
Second: Cc1ccccc1NC(=O)Nc1ccc(CC(=O)NC2(c3cc(CCC(=O)O)on3)CCCC2)cc1
The melting point of the first is lower: 162 to 164 °C for the first, 195 to 197 °C for the second.

First: C=CCC1=C(C)C(OC(=O)C2C(C=CC(C)=O)C2(C)C)CC1=C (stereo not given)
Second: C=CCOc1ccc(C=CC(=O)c2c(O)cc(OC)cc2OC)cc1
The melting point of the first is lower: less than 50 °C for the first, 112 °C for the second.

First: O=Cc1ccccc1C(=O)c1ccc(Br)cc1
Second: CC1C(=O)Nc2c(C(=O)c3ccc(Br)cc3)cccc21 (stereo not given)
The melting point of the first is lower: 103 to 109 °C for the first, 245 to 247 °C for the second.

First: COc1ccc2c(c1)C(=C1CCN(Cc3ccccc3)CC1)C(=O)N2
Second: NC(=O)c1cccc(CN2C(=O)C3(COc4cc5c(cc43)OCCO5)c3ccccc32)c1 (stereo not given)
The melting point of the first is higher: 152 °C for the first, 130 to 135 °C for the second.

Compared with `CCCCOc1ccc(NC(=O)NCC2(c3ccccc3)CCCCC2)cc1`, `CN(C)CCNC(=O)Cc1ccc(NC(=O)C2CCN(C(=O)OCc3ccccc3)CC2)cc1` is higher in melting point: 142 to 143 °C for the first, 169 to 170 °C for the second.

First: COc1cc2nc(N3CCN(C(=O)NC4CCCC4)CC3)nc(N)c2cc1OC
Second: CN1CCC(Nc2nccc(Oc3ccc(NC(=O)c4cc(F)cc(N5CCOCC5)c4)c4ccccc34)n2)CC1
The melting point of the first is higher: 200 to 202 °C for the first, 128 to 129 °C for the second.

First: C#CCc1c(Cl)nc(NC=O)nc1Cl
Second: Nc1nnc(SCc2ccc(Cl)cc2)s1
The melting point of the first is lower: 127 to 128 °C for the first, 162 to 164 °C for the second.

Compared with `CC1CCC(C(C)C)C(OC(=O)c2ccc(N)cc2O)C1` (stereo not given), `COC(=O)c1cnc(S)n1C1CC(C)c2ccccc21` (stereo not given) is lower in melting point: 187 to 189 °C for the first, 177 °C for the second.

First: O=C(O)Cc1ccc(Br)c(O)c1Br
Second: CC(=O)Cc1cc2[nH]c(=O)oc2cc1Br
The melting point of the first is higher: 186 °C for the first, 160 to 162 °C for the second.

Compared with `O=C(CCCCCl)c1ccc2c(c1)Cc1cc(C(=O)CCCCCl)ccc1O2`, `CCOC(=O)Cc1ccc(C(=O)c2ccc(Cl)cc2)n1C` is lower in melting point: 134 to 135 °C for the first, 74 to 76 °C for the second.

Compared with `Cc1ccc(NC(=O)c2cccc(N(C)C)c2)cc1NC(=O)c1cccc(N(C)S(C)(=O)=O)c1`, `O=C(Nc1nc(-c2ccco2)c(C(=O)c2cc[nH]c2)s1)c1ccncc1` is higher in melting point: 168 to 169 °C for the first, 259 to 260 °C for the second.

Compared with `Clc1cccc(C2(Cn3cncn3)OCCO2)c1`, `C=C(c1ccc(-n2cncn2)nc1)C1(c2ccc(F)cc2F)CO1` (stereo not given) is higher in melting point: 114 °C for the first, 120 to 122 °C for the second.

First: CC[C@@H]1NC(=O)C[C@]1(C)O
Second: CS(=O)(=O)O[C@H]1CCNC1=O
The melting point of the first is lower: 87 to 111 °C for the first, 122 to 124 °C for the second.

Compared with `CC(C)(C)c1ccc(CCC(=O)CCC2CCCCCC2)cc1NC(=O)CC1c2ccccc2Oc2ccccc21`, `CC(CC(C(=O)N(C)C)(c1ccccc1)c1ccccc1)N1CCC(NC(=O)c2cccc(C(F)(F)F)c2)C(O)C1` (stereo not given) is higher in melting point: 136 to 137 °C for the first, 141 °C for the second.

First: O=S(=O)(c1ccc(Nc2ccnc3cc(C(F)(F)F)ccc23)cc1)N1CCN(c2ccccn2)CC1
Second: Cc1ccc(S(=O)(=O)OCC2(F)CCN(C(=O)c3ccc(F)c(Cl)c3)CC2)cc1
The melting point of the first is higher: 202 to 203 °C for the first, 92 °C for the second.

First: CCCC(OC(=O)c1ccncc1)C(=O)O (racemic)
Second: CCOC(=O)C(=O)Nc1c(C)oc2ccccc2c1=O
The melting point of the first is higher: 152 to 153 °C for the first, 100 °C for the second.

Compared with `COc1ccc(-c2nc(N)n3nc(-c4ccco4)nc3n2)cc1OC`, `COc1cc(OC)c2c(=O)[nH]c(-c3ccc(N(CCO)CCO)cc3)nc2n1` is higher in melting point: 205 to 208 °C for the first, 277 to 279 °C for the second.

Compared with `Cc1cc(=O)c(-c2ccc(Oc3ccc(OC(F)(F)F)cc3)cc2)c(C)[nH]1`, `Fc1ccc(-c2cccc(F)n2)cc1` is lower in melting point: 244 to 248 °C for the first, 34 °C for the second.

First: CSc1ccc(C=C2C(=O)c3ccccc3CC2OCCn2ccnc2)cc1 (stereo not given)
Second: ON=Cc1ccccc1-c1ccc2c(c1C=NO)OCO2
The melting point of the first is lower: 161 to 162 °C for the first, 227 to 229 °C for the second.

Compared with `Oc1ccc(-c2nc3ccc(O)cc3s2)cc1`, `CCN(CC)CCNc1ccc(CNC)c2sc3ccc(O)cc3c(=O)c12` is lower in melting point: 284 to 286 °C for the first, 167 to 169 °C for the second.

First: CCCCCC(O)CCCC(CCCCCCC(=O)O)S(C)(=O)=O (stereo not given)
Second: O=C(O)COc1cc2c(=O)cc(C(=O)O)[nH]c2ccc1=O
The melting point of the first is lower: 47 to 48 °C for the first, greater than 270 °C for the second.

Going from `CSc1ccc(C(C)Nc2nc(N)nc(C(F)(F)F)n2)cc1` (stereo not given) to `Cc1nc(NC(=O)c2cnn3c(C(F)(F)F)cc(-c4ccc(Cl)c(Cl)c4)nc23)sc1S(N)(=O)=O`, the melting point rises from 111 °C to 307 °C.

First: Cn1cc(S(C)=O)c(=O)c2ccsc21 (stereo not given)
Second: C=CCn1nc(C(=O)NC)cc1OCCCN1CCN(c2cccc3sccc23)CC1
The melting point of the first is higher: 150 to 152 °C for the first, 138 to 140 °C for the second.

Compared with `CC(=O)NC[C@H]1CN(c2ccc(C3CCN(C=O)CC3)c(F)c2)C(=O)O1`, `CC1(CN2CCN(c3nc4ccccc4o3)CC2)Cn2cc([N+](=O)[O-])nc2O1` (stereo not given) is higher in melting point: 186 to 187 °C for the first, 228 to 230 °C for the second.

First: COc1nc2cc(Cl)ccc2n2cnnc12
Second: Cn1ncc(N2CCCCC2)c(C=NO)c1=O
The melting point of the first is higher: 250 to 252 °C for the first, 170 to 171 °C for the second.

First: OCC(O)(C(F)(F)F)C(F)(F)F
Second: CC(C)OCc1nc(C(C)(C)O)c(C(=O)OC(C)C)[nH]1
The melting point of the first is lower: 47 °C for the first, 154 to 155 °C for the second.

`CC(O)=CC(N)=NC(C)(C)C` gave a melting point of 119 to 125 °C.
